The values below come from the supplement of paper PMC10307832.

Test in all cases: relative viability (nuclei count vs DMSO), 5 days (fraction); higher = more cells survive
Compound in the assay “MK-8033 + Luminespib”: Cn1cc(-c2cnc3ccc4ccc(CS(=O)(=O)NCc5ccccn5)cc4c(=O)c3c2)cn1 [MK-8033] + CCNC(=O)c1noc(-c2cc(C(C)C)c(O)cc2O)c1-c1ccc(CN2CCOCC2)cc1 [Luminespib] (partner 0.01 µM)
The gist of the method: (§1)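 Lung cancer cell lines were pin-tool dosed in 1536-well plates on the day after seeding, with either a lone drug or a fixed anchor-drug dose plus five library-drug doses (not always all listed) in √10 steps. Nuclei were counted on 4× images after 5 days. Relative viability is the ratio of treated-well to vehicle-well nuclei counts, with each value a median of duplicate plates.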

Compound in the assay “MK-8033 + Foretinib”: Cn1cc(-c2cnc3ccc4ccc(CS(=O)(=O)NCc5ccccn5)cc4c(=O)c3c2)cn1 [MK-8033] + COc1cc2c(Oc3ccc(NC(=O)C4(C(=O)Nc5ccc(F)cc5)CC4)cc3F)ccnc2cc1OCCCN1CCOCC1 [Foretinib] (partner 0.25 µM)
The gist of the method:
as §1

Compound in the assay “Irinotecan + Lapatinib”: CCc1c2c(nc3ccc(OC(=O)N4CCC(N5CCCCC5)CC4)cc13)-c1cc3c(c(=O)n1C2)COC(=O)[C@]3(O)CC [Irinotecan] + CS(=O)(=O)CCNCc1ccc(-c2ccc3ncnc(Nc4ccc(OCc5cccc(F)c5)c(Cl)c4)c3c2)o1 [Lapatinib] (partner 2 µM)
In outline: as §1

Compound in the assay “RU-SKI 43 + OSI-027”: CC[C@@H](C)CNCC(=O)N1CCC2=C([C@@H]1COC3=CC=CC(=C3)C)C=CS2 [RU-SKI 43] + COc1cccc2cc(-c3nc([C@H]4CC[C@H](C(=O)O)CC4)n4ncnc(N)c34)[nH]c12 [OSI-027] (partner 0.5 µM)
The gist of the method: as §1

As for UMC-11, the relative viability with MK-8033 + Luminespib (first compound 0.02 µM) amounted to 1.03; with MK-8033 + Luminespib (first compound 0.06325 µM), 0.935; with MK-8033 + Luminespib (first compound 0.2 µM), 1.03; with MK-8033 + Luminespib (first compound 2 µM), 0.988; with MK-8033 + Foretinib (first compound 0.02 µM) it was 1.08; with MK-8033 + Foretinib (first compound 0.06325 µM), 1.04. Also, the relative viability in the assay with MK-8033 + Foretinib (first compound 0.2 µM) is 0.989; with MK-8033 + Foretinib (first compound 2 µM) it was 1.08; in the assay with Irinotecan + Lapatinib (first compound 0.6325 µM) it was 0.354; with Irinotecan + Lapatinib (first compound 2 µM) it was 0.452; with Irinotecan + Lapatinib (first compound 6.325 µM), 0.259; with Irinotecan + Lapatinib (first compound 20 µM) it was 0.2. Further, the relative viability came out at 0.534 with RU-SKI 43 + OSI-027 (first compound 0.1 µM); 0.631 with RU-SKI 43 + OSI-027 (first compound 0.3162 µM); 0.492 in the assay with RU-SKI 43 + OSI-027 (first compound 1 µM); 0.5 in the assay with RU-SKI 43 + OSI-027 (first compound 3.162 µM); 0.463 in the assay with RU-SKI 43 + OSI-027 (first compound 10 µM).
